Measured values taken from ChEMBL document CHEMBL1240496, “Development of potent glucagon-like peptide-1 agonists with high enzyme stability via introduction of multiple lactam bridges” (J Med Chem, 2010).
Bridge positions count the residues as written; N and C are the ends. Peptide text beside a SMILES is read from it.

Key:
[1] = molecular target: T1, Glucagon-like peptide 1 receptor (Homo sapiens, UniProt P43220); assay: Activation of human GLP1 receptor expressed in HEK293 cells assessed as increase in cAMP accumulation; assay type: functional, cell-based
T1 sequence (P43220 whole entry): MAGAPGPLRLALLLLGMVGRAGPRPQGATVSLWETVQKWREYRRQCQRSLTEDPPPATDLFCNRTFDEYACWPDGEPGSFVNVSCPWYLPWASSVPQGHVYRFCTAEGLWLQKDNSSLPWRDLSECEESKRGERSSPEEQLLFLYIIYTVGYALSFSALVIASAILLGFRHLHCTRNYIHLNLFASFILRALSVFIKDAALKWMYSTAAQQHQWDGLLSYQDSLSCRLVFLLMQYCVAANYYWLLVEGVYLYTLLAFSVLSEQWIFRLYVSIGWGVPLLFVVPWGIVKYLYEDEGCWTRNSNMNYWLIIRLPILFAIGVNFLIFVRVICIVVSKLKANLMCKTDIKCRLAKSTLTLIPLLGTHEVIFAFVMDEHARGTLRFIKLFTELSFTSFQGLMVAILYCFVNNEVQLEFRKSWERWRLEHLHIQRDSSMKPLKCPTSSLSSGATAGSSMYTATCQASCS

DPP4 = assay: Chemical stability of the compound assessed as half life up to 24 hrs by HPLC analysis in presence of human recombinant DPP4; assay type: physicochemical
NEP 24.11 = assay: Chemical stability of the compound assessed as half life up to 24 hrs by HPLC analysis in presence of human recombinant NEP 24.11; assay type: physicochemical
[2] = molecular target: T1, Glucagon-like peptide 1 receptor; assay: Activation of human GLP1 receptor expressed in HEK293 cells assessed as increase in cAMP accumulation relative to GLP1; assay type: functional, cell-based

Row | SMILES | EC50 ([1]; read-out: EC50) [nM] | EC50 ([1]; read-out: pEC50 (converted)) [nM] | half-life (DPP4) [h] | half-life (NEP 24.11) [h] | Activity [2] [%]
1 | CC[C@H](C)[C@H](NC(=O)[C@H](Cc1ccccc1)NC(=O)[C@H](CCC(=O)O)NC(=O)[C@@H]1CCCCNC(=O)CC[C@H](NC(=O)[C@H](CCC(=O)O)NC(=O)[C@H](CC(C)C)NC(=O)[C@H](Cc2ccc(O)cc2)NC(=O)[C@H](CO)NC(=O)[C@H](CO)NC(=O)[C@@H](NC(=O)[C@H](CC(=O)O)NC(=O)[C@H](CO)NC(=O)[C@@H](NC(=O)[C@H](Cc2ccccc2)NC(=O)[C@@H](NC(=O)CNC(=O)[C@H](CCC(=O)O)NC(=O)[C@H](C)NC(=O)[C@@H](N)Cc2cnc[nH]2)[C@@H](C)O)[C@@H](C)O)C(C)C)C(=O)N[C@@H](CCC(N)=O)C(=O)N[C@@H](C)C(=O)N[C@@H](C)C(=O)N1)C(=O)N[C@@H](C)C(=O)N[C@@H](Cc1c[nH]c2ccccc12)C(=O)N[C@@H](CC(C)C)C(=O)N[C@H](C(=O)N[C@@H](CCCCN)C(=O)NCC(=O)N[C@@H](CCCN=C(N)N)C(=O)O)C(C)C | 2.8 | 5.01 | 2.9 | 6.9 | –
2 | CC[C@H](C)[C@H](NC(=O)[C@H](Cc1ccccc1)NC(=O)[C@H](CCC(=O)O)NC(=O)[C@H](CCCCN)NC(=O)[C@H](C)NC(=O)[C@H](C)NC(=O)[C@H](CCC(N)=O)NC(=O)[C@@H]1CCCCNC(=O)CC[C@H](NC(=O)[C@H](CO)NC(=O)[C@@H](NC(=O)[C@H](CC(=O)O)NC(=O)[C@H](CO)NC(=O)[C@@H](NC(=O)[C@H](Cc2ccccc2)NC(=O)[C@@H](NC(=O)CNC(=O)[C@H](CCC(=O)O)NC(=O)[C@H](C)NC(=O)[C@@H](N)Cc2cnc[nH]2)[C@@H](C)O)[C@@H](C)O)C(C)C)C(=O)N[C@@H](Cc2ccc(O)cc2)C(=O)N[C@@H](CC(C)C)C(=O)N[C@@H](CCC(=O)O)C(=O)N1)C(=O)N[C@H]1CCC(=O)NCCCC[C@@H](C(=O)NCC(=O)N[C@@H](CCCN=C(N)N)C(N)=O)NC(=O)[C@H](C(C)C)NC(=O)[C@H](CC(C)C)NC(=O)[C@H](Cc2c[nH]c3ccccc23)NC1=O | 1.9 | – | 3.6 | > 96 | –
3 | CC[C@H](C)[C@H](NC(=O)[C@H](Cc1ccccc1)NC(=O)[C@H](CCC(=O)O)NC(=O)[C@@H]1CCCCNC(=O)CC[C@H](NC(=O)[C@H](CCC(=O)O)NC(=O)[C@H](CC(C)C)NC(=O)[C@H](Cc2ccc(O)cc2)NC(=O)[C@H](CO)NC(=O)[C@H](CO)NC(=O)[C@@H](NC(=O)[C@H](CC(=O)O)NC(=O)[C@H](CO)NC(=O)[C@@H](NC(=O)[C@H](Cc2ccccc2)NC(=O)[C@@H](NC(=O)CNC(=O)[C@H](CCC(=O)O)NC(=O)[C@H](C)NC(=O)[C@@H](N)Cc2cnc[nH]2)[C@@H](C)O)[C@@H](C)O)C(C)C)C(=O)N[C@@H](CCC(N)=O)C(=O)N[C@@H](C)C(=O)N[C@@H](C)C(=O)N1)C(=O)N[C@@H](C)C(=O)N[C@@H](Cc1c[nH]c2ccccc12)C(=O)N[C@@H](CC(C)C)C(=O)N[C@H](C(=O)N[C@@H](CCCCN)C(=O)NCC(=O)N[C@@H](CCCNC(=N)N)C(=O)O)C(C)C | – | – | – | – | 160
4 | CC[C@H](C)[C@H](NC(=O)[C@H](Cc1ccccc1)NC(=O)[C@H](CCC(=O)O)NC(=O)[C@H](CCCCN)NC(=O)[C@H](C)NC(=O)[C@H](C)NC(=O)[C@H](CCC(N)=O)NC(=O)CNC(=O)[C@H](CCC(=O)O)NC(=O)[C@@H]1CCCCNC(=O)CC[C@H](NC(=O)[C@H](CC(=O)O)NC(=O)[C@H](CO)NC(=O)[C@@H](NC(=O)[C@H](Cc2ccccc2)NC(=O)[C@@H](NC(=O)CNC(=O)[C@H](CCC(=O)O)NC(=O)[C@H](C)NC(=O)[C@@H](N)Cc2cnc[nH]2)[C@@H](C)O)[C@@H](C)O)C(=O)N[C@@H](CO)C(=O)N[C@@H](CO)C(=O)N[C@@H](Cc2ccc(O)cc2)C(=O)N1)C(=O)N[C@H]1CCC(=O)NCCCC[C@@H](C(=O)NCC(=O)N[C@@H](CCCN=C(N)N)C(N)=O)NC(=O)[C@H](C(C)C)NC(=O)[C@H](CC(C)C)NC(=O)[C@H](Cc2c[nH]c3ccccc23)NC1=O (H-HAEGTFTSDESSYKEGQAAKEFIEWLVKGR-NH2; lactam 10-14, 24-28) | 3.3 | – | 3.1 | 6.6 | –
5 | CC[C@H](C)[C@H](NC(=O)[C@H](Cc1ccccc1)NC(=O)[C@H](CCC(=O)O)NC(=O)[C@H](CCCCN)NC(=O)[C@H](C)NC(=O)[C@H](C)NC(=O)[C@H](CCC(N)=O)NC(=O)CNC(=O)[C@H](CC(C)C)NC(=O)[C@H](Cc1ccc(O)cc1)NC(=O)[C@H](CO)NC(=O)[C@H](CO)NC(=O)[C@@H](NC(=O)[C@H](CC(=O)O)NC(=O)[C@H](CO)NC(=O)[C@@H](NC(=O)[C@H](Cc1ccccc1)NC(=O)[C@@H](NC(=O)CNC(=O)[C@H](CCC(=O)O)NC(=O)[C@H](C)NC(=O)[C@@H](N)Cc1cnc[nH]1)[C@@H](C)O)[C@@H](C)O)C(C)C)C(=O)N[C@@H](C)C(=O)N[C@@H](Cc1c[nH]c2ccccc12)C(=O)N[C@@H](CC(C)C)C(=O)N[C@H](C(=O)N[C@@H](CCCCN)C(=O)NCC(=O)N[C@@H](CCCNC(=N)N)C(=O)O)C(C)C [GLP-1] (H-HAEGTFTSDVSSYLGQAAKEFIAWLVKGR-OH) | – | – | 2 | 4.6 | –

More lines, now with the values ahead:

Row | EC50 ([1]; read-out: EC50) [nM] | EC50 ([1]; read-out: pEC50 (converted)) [nM] | half-life (DPP4) [h] | half-life (NEP 24.11) [h] | Activity [2] [%] | SMILES
6 | 5.3 | 2.51 | 3.3 | 6.9 | 90 | CC[C@H](C)[C@H](NC(=O)[C@H](Cc1ccccc1)NC(=O)[C@H](CCC(=O)O)NC(=O)[C@H](CCCCN)NC(=O)[C@H](C)NC(=O)[C@H](C)NC(=O)[C@H](CCC(N)=O)NC(=O)CNC(=O)[C@H](CCC(=O)O)NC(=O)[C@H](CC(C)C)NC(=O)[C@H](Cc1ccc(O)cc1)NC(=O)[C@H](CO)NC(=O)[C@H](CO)NC(=O)[C@@H](NC(=O)[C@H](CC(=O)O)NC(=O)[C@H](CO)NC(=O)[C@@H](NC(=O)[C@H](Cc1ccccc1)NC(=O)[C@@H](NC(=O)CNC(=O)[C@H](CCC(=O)O)NC(=O)[C@H](C)NC(=O)[C@@H](N)Cc1cnc[nH]1)[C@@H](C)O)[C@@H](C)O)C(C)C)C(=O)N[C@H]1CCC(=O)NCCCC[C@@H](C(=O)NCC(=O)N[C@@H](CCCNC(=N)N)C(N)=O)NC(=O)[C@H](C(C)C)NC(=O)[C@H](CC(C)C)NC(=O)[C@H](Cc2c[nH]c3ccccc23)NC1=O
7 | – | – | – | – | 240 | CC[C@H](C)[C@H](NC(=O)[C@H](Cc1ccccc1)NC(=O)[C@H](CCC(=O)O)NC(=O)[C@H](CCCCN)NC(=O)[C@H](C)NC(=O)[C@H](C)NC(=O)[C@H](CCC(N)=O)NC(=O)[C@@H]1CCCCNC(=O)CC[C@H](NC(=O)[C@H](CO)NC(=O)[C@@H](NC(=O)[C@H](CC(=O)O)NC(=O)[C@H](CO)NC(=O)[C@@H](NC(=O)[C@H](Cc2ccccc2)NC(=O)[C@@H](NC(=O)CNC(=O)[C@H](CCC(=O)O)NC(=O)[C@H](C)NC(=O)[C@@H](N)Cc2cnc[nH]2)[C@@H](C)O)[C@@H](C)O)C(C)C)C(=O)N[C@@H](Cc2ccc(O)cc2)C(=O)N[C@@H](CC(C)C)C(=O)N[C@@H](CCC(=O)O)C(=O)N1)C(=O)N[C@H]1CCC(=O)NCCCC[C@@H](C(=O)NCC(=O)N[C@@H](CCCNC(=N)N)C(N)=O)NC(=O)[C@H](C(C)C)NC(=O)[C@H](CC(C)C)NC(=O)[C@H](Cc2c[nH]c3ccccc23)NC1=O
8 | 1.8 | – | > 24 | > 96 | – | CC[C@H](C)[C@H](NC(=O)[C@H](Cc1ccccc1)NC(=O)[C@H](CCC(=O)O)NC(=O)[C@@H]1CCCCNC(=O)CC[C@H](NC(=O)[C@H](CCC(=O)O)NC(=O)[C@@H]2CCCCNC(=O)CC[C@H](NC(=O)[C@H](CC(=O)O)NC(=O)[C@H](CO)NC(=O)[C@@H](NC(=O)[C@H](Cc3ccccc3)NC(=O)[C@@H](NC(=O)CNC(=O)[C@H](CCC(=O)O)NC(=O)[C@H](C)NC(=O)[C@@H](N)Cc3cnc[nH]3)[C@@H](C)O)[C@@H](C)O)C(=O)N[C@@H](CO)C(=O)N[C@@H](CO)C(=O)N[C@@H](Cc3ccc(O)cc3)C(=O)N2)C(=O)N[C@@H](CCC(N)=O)C(=O)N[C@@H](C)C(=O)N[C@@H](C)C(=O)N1)C(=O)N[C@H]1CCC(=O)NCCCC[C@@H](C(=O)NCC(=O)N[C@@H](CCCN=C(N)N)C(N)=O)NC(=O)[C@H](C(C)C)NC(=O)[C@H](CC(C)C)NC(=O)[C@H](Cc2c[nH]c3ccccc23)NC1=O (H-HAEGTFTSDESSYKEEQAAKEFIEWLVKGR-NH2; lactam 10-14, 16-20, 24-28)
9 | – | – | – | – | 260 | CC[C@H](C)[C@H](NC(=O)[C@H](Cc1ccccc1)NC(=O)[C@H](CCC(=O)O)NC(=O)[C@@H]1CCCCNC(=O)CC[C@H](NC(=O)[C@H](CCC(=O)O)NC(=O)[C@@H]2CCCCNC(=O)CC[C@H](NC(=O)[C@H](CC(=O)O)NC(=O)[C@H](CO)NC(=O)[C@@H](NC(=O)[C@H](Cc3ccccc3)NC(=O)[C@@H](NC(=O)CNC(=O)[C@H](CCC(=O)O)NC(=O)[C@H](C)NC(=O)[C@@H](N)Cc3cnc[nH]3)[C@@H](C)O)[C@@H](C)O)C(=O)N[C@@H](CO)C(=O)N[C@@H](CO)C(=O)N[C@@H](Cc3ccc(O)cc3)C(=O)N2)C(=O)N[C@@H](CCC(N)=O)C(=O)N[C@@H](C)C(=O)N[C@@H](C)C(=O)N1)C(=O)N[C@H]1CCC(=O)NCCCC[C@@H](C(=O)NCC(=O)N[C@@H](CCCNC(=N)N)C(N)=O)NC(=O)[C@H](C(C)C)NC(=O)[C@H](CC(C)C)NC(=O)[C@H](Cc2c[nH]c3ccccc23)NC1=O (H-HAEGTFTSDESSYKEEQAAKEFIEWLVKGR-NH2; lactam 10-14, 16-20, 24-28)
10 | – | – | – | – | 140 | CC[C@H](C)[C@H](NC(=O)[C@H](Cc1ccccc1)NC(=O)[C@H](CCC(=O)O)NC(=O)[C@H](CCCCN)NC(=O)[C@H](C)NC(=O)[C@H](C)NC(=O)[C@H](CCC(N)=O)NC(=O)CNC(=O)[C@H](CCC(=O)O)NC(=O)[C@@H]1CCCCNC(=O)CC[C@H](NC(=O)[C@H](CC(=O)O)NC(=O)[C@H](CO)NC(=O)[C@@H](NC(=O)[C@H](Cc2ccccc2)NC(=O)[C@@H](NC(=O)CNC(=O)[C@H](CCC(=O)O)NC(=O)[C@H](C)NC(=O)[C@@H](N)Cc2cnc[nH]2)[C@@H](C)O)[C@@H](C)O)C(=O)N[C@@H](CO)C(=O)N[C@@H](CO)C(=O)N[C@@H](Cc2ccc(O)cc2)C(=O)N1)C(=O)N[C@H]1CCC(=O)NCCCC[C@@H](C(=O)NCC(=O)N[C@@H](CCCNC(=N)N)C(N)=O)NC(=O)[C@H](C(C)C)NC(=O)[C@H](CC(C)C)NC(=O)[C@H](Cc2c[nH]c3ccccc23)NC1=O (H-HAEGTFTSDESSYKEGQAAKEFIEWLVKGR-NH2; lactam 10-14, 24-28)
